Results reported in paper PMC6261997, “Synergistic enzymatic and bioorthogonal reactions for selective prodrug activation in living systems” (Nature Communications, 2018).

Tests used:
[1] = UPLC-MS/MS pharmacokinetic analyses in tumour, liver and plasma; assay type: in vivo, BALB/c nude mice; details: within 1 h after i.v. 50 mg kg^−1 2
Experimental: For in vivo prodrug activation, mice received an i.v. injection of 50 mg kg^−1 2 and a subsequent 30 mg kg^−1 TCO-Dox after a 2-h interval. After different time intervals, blood samples were collected from the tail veins, and then, the tumours and livers were harvested for UPLC-MS/MS analysis.
UPLC-MS/MS analyses: UPLC-MS/MS metabolomic analyses were performed using a
multiple reaction-monitoring mode (MRM). Data acquisition and processing were performed using LabSolutions version 5 software. Measurements were carried out at
Dox, solvent A consisted of 0.1% formic acid in water and solvent B consisted of 0.1% formic acid in mass spectrometric grade acetonitrile; (2) for compound TCO-Dox, solvent A consisted of 100% water and solvent B consisted of 100% mass spectrometric grade acetonitrile. Injection volume was 2 or 10 L. The mass spectrometer was interfaced with the liquid chromatograph using an electrospray ion source. The nitrogen nebulizing gas flow was set at 10 L min-1 and the drying gas flow at 15 mL min-1. 4500 V were used for the interface voltage. The temperature of the block heater was maintained at 400 °C and the one of the desolvation line at 250 °C. The MRM transitions were
Dox. The collision gas used was argon at 230 kPa. The dwell time was set to 100 msec and the pause time to 3 msec.
Sample preparation: blood samples were collected from the tail vein of mice. Plasma […]

[2] = test system: HeLa cells; test: Intracellular Tz accumulation by fluorescence liberation from TCO-CMR, HeLa cells; assay type: cell-based; details: 50 or 500 μM Tz-COOH for 6 h, then 50 μM TCO-CMR 1-24 h
Experimental: Next, we tested the intracellular accumulation of Tz via EISA in an attempt to differentiate cancer cells from normal cells. First, we investigated the accumulation of Tz in HeLa cells and HUVECs over time via fluorescence liberation from TCO-CMR (Fig. 3a). […] The cells were then washed with PBS thoroughly before the addition of an excessive amount of TCO-CMR (100 μL, 50 μM), and the reaction of TCO-CMR with the intracellular accumulated Tz was allowed to proceed for up to 24 h (Supplementary Fig. 8). In this experimental setting, the total liberated fluorescence was proportional to the amount of 3 accumulated inside the cells. […] Therefore, the optimized concentration of 2 (e.g. 500 μM) and incubation time (e.g. 6 h) were selected to differentiate between cancer and normal cells according to liberated fluorescence intensity (Fig. 3c). This differentiation was dependent on the considerably different phosphatase activity between these cell lines (Supplementary Fig. 11), allowing EISA to specifically occur in cancer cells as opposed to normal cells.
All cells were purchased from the National Infrastructure of Cell Line Resource (Beijing, China). HeLa cells, HUVECs and CCC-HEH-2 cells were cultured in a humidified CO2 (5%) incubator at 37 °C in DMEM supplemented with 10% foetal bovine serum (FBS, Gibco) and 1% Pen Strep (PS, Gibco). Saos-2 cells were cultured in a humidified CO2 (5%) incubator at 37 °C in McCoy’s 5A medium supplemented with 10% FBS and 1% PS. Cells were plated in flat-bottom 96-well plates (Corning) at a density of 10^4 cells per well and allowed to attach for 12 h. Then, the culture medium was replaced with 100 μL of pre-warmed medium containing 2 at different concentrations (100–500 μM). After incubation for different durations (1–24 h), the cells were rinsed with PBS, and then 100 μL of 50 μM TCO-CMR (dissolved in PBS) was added for real-time detection of the fluorescence intensity of coumarin in a plate reader (Perkin Elmer).

[3] = Self-assembly and hydrogelation on addition of alkaline phosphatase (ALP); assay type: physicochemical; details: after addition of 10 U mL^−1 ALP (dephosphorylated product)
Experimental: The synthesis of the assembly precursor (NapK(Tz)YpF, 2, Fig. 2a) was straightforward (see Supplementary Methods for a detailed protocol). Because KYF was determined to be an excellent self-assembly motif in a tri-peptide census survey, we constructed our assembling molecules based on this sequence. The conjugation of a strong π–π stacking moiety, namely, a naphthalene group, to the N terminus may further enhance the self-assembly potential of this molecule. Phosphorylation on tyrosine (Y) enabled the responsiveness of this motif to phosphatase. All of these components were sequentially conjugated via typical Fmoc-based solid-phase peptide synthesis (SPPS) to yield NapKYpF (1). The capability of self-assembly and hydrogelation of 1 was confirmed by the addition of 10 U mL^−1 alkaline phosphatase (ALP) into a solution of 1 (Supplementary Fig. 1). The dephosphorylated product of 1 formed transparent hydrogels with a network of uniform nanofibres (Supplementary Fig. 2), and the critical hydrogelation concentration was 1.0 mg mL^−1. The ε-amine of Lys on 1 was conjugated with the Tz derivative Tz-COOH (2-(4-(6-methyl-1,2,4,5-tetrazin-3-yl)phenyl) acetic acid) via an NHS-mediated ester–amide exchange reaction to yield 2. […] Upon the addition of ALP (10 U mL^−1) into the solution of 2, a transparent purple hydrogel was formed within 1 h (Fig. 2b inset), and the critical hydrogelation concentration was 1.0 mg mL^−1 (Supplementary Fig. 3). Similar to the formation of a typical hydrogel, investigation by transmission electron microscopy (TEM) confirmed the existence of numerous uniform nanofibres, each with a diameter of approximately 12 nm, which was close to that of hydrogel 1 (Fig. 2b).

[4] = test system: HeLa cells; test: MTT cell viability / cytotoxicity assay, HeLa cells; assay type: cell-based
Experimental: (§1) Cells were plated in flat-bottom 96-well plates at a density of 3 × 10^3 cells per well. After 12 h of cell attachment, the cell culture medium was replaced with 100 μL of pre-warmed media containing the compounds at different concentrations. After 24–72 h of incubation, cell proliferation was assessed by the MTT assay. A fresh mixture of 10 μL of thiazolyl blue tetrazolium bromide (MTT) and 90 μL of medium were freshly added to each well. After incubation for 4 h, the medium was gently removed. The formazan crystals that formed were dissolved in 110 μL of DMSO, and the absorbance was subsequently measured with a plate reader (Perkin Elmer) at 490 nm. EC50 values were calculated using Origin software. To measure the cytotoxicity of 2, HeLa cells, HUVECs, Saos-2 cells and CCC-HEH-2 cells were incubated with 100 μL of 1–500 μM 2 for 24 h, and then, cell viability was determined. To measure the cytotoxicity of TCO-Dox or Dox, HeLa cells, HUVECs, Saos-2 cells or CCC-HEH-2 cells were incubated with 200 μL of 0.001–10 μM TCO-Dox or Dox for 72 h, and the cell viability was determined. To determine the cytotoxicity of activated Dox, HeLa cells, HUVECs, […], and then, 2 was removed and 200 μL of 0.0001–10 μM TCO-Dox was added for 72 h of incubation, and cell viability was determined. […]
(§2) Prodrug activation efficacy in cells: Cells were plated on flat bottom 96-well plates at a
(§3) density of 3x10^3 cells per well. After 12 h attachment, cells were incubated with 100 µL
(§4) 500 µM of 2 for 6 h before removing 2 and the addition of 200 µL 0.0001-10 µM of […]

[5] = test system: Saos-2 cells; test: MTT cell viability / cytotoxicity assay, Saos-2 cells; assay type: cell-based
Experimental: (§5) Cells were plated in flat-bottom 96-well plates at a density of 3 × 10^3 cells per well. After 12 h of cell attachment, the cell culture medium was replaced with 100 μL of pre-warmed media containing the compounds at different concentrations. After 24–72 h of incubation, cell proliferation was assessed by the MTT assay. A fresh mixture of 10 μL of thiazolyl blue tetrazolium bromide (MTT) and 90 μL of medium were freshly added to each well. After incubation for 4 h, the medium was gently removed. The formazan crystals that formed were dissolved in 110 μL of DMSO, and the absorbance was subsequently measured with a plate reader (Perkin Elmer) at 490 nm. EC50 values were calculated using Origin software. To measure the cytotoxicity of 2, HeLa cells, HUVECs, Saos-2 cells and CCC-HEH-2 cells were incubated with 100 μL of 1–500 μM 2 for 24 h, and then, cell viability was determined. To measure the cytotoxicity of TCO-Dox or Dox, HeLa cells, HUVECs, Saos-2 cells or CCC-HEH-2 cells were incubated with 200 μL of 0.001–10 μM TCO-Dox or Dox for 72 h, and the cell viability was determined. To determine the cytotoxicity of activated Dox, HeLa cells, HUVECs, Saos-2 cells or CCC-HEH-2 cells were pre-incubated with 100 μL of 500 μM 2 for 6 h, and then, 2 was removed and 200 μL of 0.0001–10 μM TCO-Dox was added for 72 h of incubation, and cell viability was determined. […]
Prodrug activation efficacy in cells: Cells were plated on flat bottom 96-well plates at a density of 3x10^3 cells per well. After 12 h attachment, cells were incubated with 100 µL 500 µM of 2 for 6 h before removing 2 and the addition of 200 µL 0.0001-10 µM of TCO-Dox. Cells were further incubated for 72 h before measuring the viability by the MTT […]
Clonogenic assay of cells in vitro: Clonogenic assay was performed according to the standard protocol.6 2×10^5 attached cells were treated with 500 µM of 2 for 6 h in culture dishes. Cells were then detached, re-suspended in cultural medium and counted accurately. The cell suspension was diluted into the desired seeding concentration and cells were seeded in 6-well plates at a density of 200 cells per well for CCC-HEH-2 and 400 cells per well for HeLa, Saos-2 and HUVECs. After incubation for 10 days, the cultural medium was removed and cells were rinsed carefully with PBS. 2 mL of a mixture of 6.0% (vol/vol) glutaraldehyde and 0.5% (wt/vol) crystal violet was added and kept for 30 min.
The glutaraldehyde crystal violet mixture was removed carefully. The colonies were rinsed with water and dried in normal air at room temperature. The number of the colonies was counted using a stereomicroscope.
When untreated cells are plated as a single-cell suspension at low densities, they will grow to colonies. The plating efficiency (PE) is the ratio of the number of colonies to the […]
(Supplementary Equation 1)
The number of colonies that arise after treatment of cells, expressed in terms of PE, is called the surviving fraction (SF): […]

[6] = test system: CCC-HEH-2 cells; test: MTT cell viability / cytotoxicity assay, CCC-HEH-2 cells; assay type: cell-based; details: Homo sapiens; 72 h cytotoxicity, MTT; Activated Dox: cells pre-incubated with 500 μM 2 for 6 h, then TCO-Dox 72 h; read-out: EC50, CCC-HEH-2
Experimental: as §5

[7] = test system: HUVECs; test: MTT cell viability / cytotoxicity assay, HUVECs; assay type: cell-based; details: Homo sapiens, HUVEC, 72 h cytotoxicity, MTT; Activated Dox: cells pre-incubated with 500 μM 2 for 6 h, then TCO-Dox 72 h; read-out: EC50, HUVECs
Experimental: as §1, §2, §3, §4

[8] = test system: HeLa tumours; test: Tumour inhibition test, subcutaneous HeLa xenograft; assay type: in vivo, BALB/c nude mice; details: i.v., three courses (day 0, 3, 6); 50 mg kg^−1 2, 30 mg kg^−1 TCO-Dox, 5 mg kg^−1 Dox, or 50 mg kg^−1 2 then 30 mg kg^−1 TCO-Dox after 2 h
Experimental: All animal studies were performed in accordance with the Institutional Animal Use and Care Regulations approved by the National Institutes of Health Clinical Center/Animal Care and Use Committee (NIH CC/ACUC). Athymic female nude mice (5–6 weeks old) were purchased from Beijing Huafukang Bioscience Co., Ltd., and raised in a specific-pathogen-free barrier facility. Tumour-bearing mice were established by subcutaneously injecting a suspension of 10^6 HeLa cells per mouse into the front flank of each nude mouse.
After 14 days, the mice were sacrificed.

[9] = Systemic toxicity in treated mice (body weight, death, organ histology)
Experimental: When the tumour volume reached approximately 80–100 mm^3, the mice were divided into five groups (n = 8) and used for therapeutic studies. Mice in the treatment group received an i.v. injection of 50 mg kg^−1 2 and a subsequent 30 mg kg^−1 TCO-Dox after a 2-h interval. In the control groups, mice were received 50 mg kg^−1 2, 30 mg kg^−1 TCO-Dox, 5 mg kg^−1 Dox or saline. The mice received three treatment courses on day 0, day 3 and day 6. Tumour size and body weight were measured every 2 days. After 14 days, the mice were sacrificed. Tumours and main organs were obtained for histological examination with HE staining.
Effect of the dosage of Dox to the mice body weight.
The arrows on x-axis marked the administrations of Dox (n= 8).
indicate standard deviation.
Histological examination of heart, liver, spleen, lung and
Organs were harvested after treatment at day 14 and stained by hematoxylin and

## Cc1nnc(-c2ccc(CC(=O)NCCCCC(NC(=O)Cc3ccc4ccccc4c3)C(=O)NC(Cc3ccc(O)cc3)C(=O)NC(Cc3ccccc3)C(=O)O)cc2)nn1 (stereo not drawn) [compound 3, NapK(Tz)YF]
[1]
  concentration in tumours: increased significantly within 1 h

## Cc1nnc(-c2ccc(CC(=O)O)cc2)nn1 [Tz-COOH, 2-(4-(6-methyl-1,2,4,5-tetrazin-3-yl)phenyl) acetic acid, reference compound]
[2]
  accumulation in HeLa cells: hardly accumulated

## NCCCCC(NC(=O)Cc1ccc2ccccc2c1)C(=O)NC(Cc1ccc(OP(=O)(O)O)cc1)C(=O)NC(Cc1ccccc1)C(=O)O (stereo not drawn) [compound 1, NapKYpF]
[3]
  critical hydrogelation concentration: 1.0 mg/mL

## COc1cccc2c1C(=O)c1c(O)c3c(c(O)c1C2=O)C[C@@](O)(C(=O)CO)C[C@@H]3O[C@H]1C[C@H](N)[C@H](O)[C@H](C)O1 [Dox, doxorubicin, reference compound]
[4]; Homo sapiens, HeLa, 72 h cytotoxicity, MTT, Activated Dox: cells pre-incubated with 500 μM 2 for 6 h, then TCO-Dox 72 h, read-out: EC50, HeLa
  EC50: 732 nM
[4]; ratio of 72 h EC50 values
  EC50 ratio CCC-HEH-2/HeLa: 0.115
  EC50 ratio HUVECs/HeLa: 0.182
[5]; Homo sapiens, SAOS-2, 72 h cytotoxicity, MTT, Activated Dox: cells pre-incubated with 500 μM 2 for 6 h, then TCO-Dox 72 h, read-out: EC50, Saos-2
  EC50: 425 nM
[5]; ratio of 72 h EC50 values
  EC50 ratio CCC-HEH-2/Saos-2: 0.198
  EC50 ratio HUVECs/Saos-2: 0.313
[6]
  EC50: 84 nM
[7]
  EC50: 133 nM
[8]
  tumour growth: tumour growth could be inhibited
[9]; 6.0 mg kg-1 Dox
  death of mice: the mice began to die eleven day
[9]; 7.5 mg kg-1 Dox
  death of mice: the mice began to die six
[9]; 15 mg kg-1 Dox
  death of mice: the mice died within five days
